The text below walks through data of US9669003B2, “Use of flavone and flavanone derivatives in preparation of sedative and hypnotic drugs” (priority 2012, dated 2017).

Common to all, as to assay type: in vivo
In assay [1] the test system is Kunming mice. As to the kind of experiment: Influence on autonomic activity of normal mice (ZIL-2 mice autonomic activity meter, counts within 10 min). Particulars: intragastric, x ± s, n = 10; for Times of activities in 1 h after drug administration/10 min: 1 h after administration; for Times of activities in 2 h after drug administration/10 min: 2 h after administration; for Times of activities in 24 h after drug administration/10 min: 24 h after administration. Summed up: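 Kunming mice (10 per group, half each sex) were dosed at 25, 50 or 100 mg/kg in 0.5% CMC-Na. Spontaneous activity counts over 10 min were recorded at 1 h, 2 h and 24 h post-dose. Groups were compared by ANOVA with Dunnett's test after Levene's check.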

Assay [2] deals with Kunming mice. As to the kind of experiment: Influence on hypnosis effect with pentobarbital sodium doses at the threshold (50 mg/kg i.p.). Particulars: pentobarbital sodium 50 mg/kg i.p. 60 min later, x ± s, n = 10. An outline of the steps:
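Kunming mice (10/group, half each sex) received compound in 0.5% CMC-Na intragastrically at 25, 50 or 100 mg/kg; 60 min later given 0.3% sodium pentobarbital 50 mg/kg i.p. Sleep latency and duration recorded by loss of righting reflex over 1 min; ANOVA and χ2 for sleep incidence.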

Assay [3] has as its system Kunming mice. Kind of assay: Influence on hypnosis effect with pentobarbital sodium doses below the threshold (25 mg/kg i.p.). Particulars: pentobarbital sodium 25 mg/kg i.p. 60 min later, sleep observed in 30 min, n = 10. Summed up: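 Kunming mice (10 per group, half female) given single oral doses of 25, 50 or 100 mg/kg in 0.5% CMC-Na; 60 min later pentobarbital sodium 25 mg/kg i.p. Sleep (righting reflex lost >1 min) scored within 30 min as percentage asleep, χ2 test.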

The mark [4] stands for this setting: 25 mg/kg intragastric single dose.
Where [5] appears, read: 50 mg/kg intragastric single dose.
Where [6] appears, read: 100 mg/kg intragastric single dose.
Where [7] appears, read: test drug 25 mg/kg intragastric single dose.
[8] abbreviates: test drug 50 mg/kg intragastric single dose.
[9] abbreviates: test drug 100 mg/kg intragastric single dose.

Each structure is given as a SMILES string. Marks after values point to notes of the source that are not given here.

Consider `COc1c(O)cc(C2CC(=O)c3c(O)cc(O)cc3O2)cc1C(=O)O` (stereo not drawn) [Example 50], for which the “Times of activities in 1 h after drug administration/10 min” value (“Times of activities in 1 h” for short) with Kunming mice [1] (25 mg/kg) is 319.2 ± 55.4 /10 min; in the assay with Kunming mice [1] (50 mg/kg), 297.5 ± 42.5 /10 min; in the assay with Kunming mice [1] (100 mg/kg), 279.4 ± 48.3 /10 min. The “Times of activities in 2 h after drug administration/10 min” value (“Times of activities in 2 h” for short) in the assay with Kunming mice [1] (25 mg/kg) is 290.6 ± 41.2 /10 min; in the assay on Kunming mice [1] (50 mg/kg), 253.5 ± 40.4 /10 min; in the assay on Kunming mice [1] (100 mg/kg), 224.7 ± 46.3 /10 min. The “Times of activities in 24 h after drug administration/10 min” value (“Times of activities in 24 h” for short) was 303.2 ± 78.6 /10 min with Kunming mice [1] (25 mg/kg), 304.7 ± 92.8 /10 min in the assay on Kunming mice [1] (50 mg/kg) and 312.4 ± 79.1 /10 min in the assay with Kunming mice [1] (100 mg/kg). Moreover, the duration of sleep was 22.71 ± 26.17 min in the assay with Kunming mice [2] (setting [4]), 28.68 ± 27.56 min in the assay on Kunming mice [2] (setting [5]) and 65.35 ± 46.27 min in the assay with Kunming mice [2] (setting [6]). Besides, the time to sleep with Kunming mice [2] (setting [4]) amounted to 5.41 ± 2.17 min; in the assay on Kunming mice [2] (setting [5]) it was 5.07 ± 2.34 min; with Kunming mice [2] (setting [6]) it was 3.25 ± 1.16 min. Also, the “Number of sleeping animals” value in the assay on Kunming mice [3] (setting [7]) amounted to 2; with Kunming mice [3] (setting [8]), 4; in the assay on Kunming mice [3] (setting [9]), 7. Further, the “rate of sleeping (%)” value is 20% in the assay with Kunming mice [3] (setting [7]), 40* % in the assay on Kunming mice [3] (setting [8]) and 70** % in the assay with Kunming mice [3] (setting [9]).

On to `CCCc1cc(C2CC(=O)c3c(cc(O)cc3[N+](=O)[O-])O2)cc(-c2ccccc2)c1C1CCSC1` (stereo not drawn) [Example 51], for which the “Times of activities in 1 h” value was 227.8 ± 75.6 /10 min in the assay with Kunming mice [1] (25 mg/kg), 143.3 ± 64.7 /10 min with Kunming mice [1] (50 mg/kg) and 115.8 ± 34.4 /10 min in the assay on Kunming mice [1] (100 mg/kg). Besides, the “Times of activities in 2 h” value with Kunming mice [1] (25 mg/kg) is 231.8 ± 79.8 /10 min; in the assay with Kunming mice [1] (50 mg/kg), 130.7 ± 63.2 /10 min; with Kunming mice [1] (100 mg/kg) it was 108.8 ± 39.4 /10 min. Moreover, the “Times of activities in 24 h” value was 321.6 ± 70.7 /10 min in the assay with Kunming mice [1] (25 mg/kg), 306.3 ± 68.2 /10 min in the assay with Kunming mice [1] (50 mg/kg) and 300.4 ± 77.5 /10 min in the assay with Kunming mice [1] (100 mg/kg). Further, the values for the duration of sleep in the assay on Kunming mice [2] (setting [4]), with Kunming mice [2] (setting [5]) and in the assay on Kunming mice [2] (setting [6]) were 49.88 ± 19.09 min, 57.61 ± 14.98 min and 82.27 ± 15.68 min, respectively. The time to sleep in the assay with Kunming mice [2] (setting [4]) was determined as 4.61 ± 1.74 min; in the assay on Kunming mice [2] (setting [5]), 3.43 ± 1.99 min; with Kunming mice [2] (setting [6]), 2.71 ± 1.72 min. For the same compound, the “Number of sleeping animals” value turned out to be 6 with Kunming mice [3] (setting [7]), 6 in the assay with Kunming mice [3] (setting [8]) and 8 in the assay on Kunming mice [3] (setting [9]). Moreover, the “rate of sleeping (%)” value in the assay on Kunming mice [3] (setting [7]) was 60** %; in the assay with Kunming mice [3] (setting [8]), 60** %; in the assay with Kunming mice [3] (setting [9]), 80*** %.

On to `CCc1cccc2c1C(=O)CC(c1cc(F)cc(C(=O)O)c1)O2` (stereo not drawn) [Example 53], for which the “Times of activities in 1 h” value in the assay with Kunming mice [1] (25 mg/kg) is 303.8 ± 67.4 /10 min; with Kunming mice [1] (50 mg/kg) it was 249.3 ± 61.0 /10 min; in the assay on Kunming mice [1] (100 mg/kg), 201.8 ± 36.6 /10 min. The results for the “Times of activities in 2 h” value in the assay with Kunming mice [1] (25 mg/kg), in the assay with Kunming mice [1] (50 mg/kg) and in the assay on Kunming mice [1] (100 mg/kg) were 283.8 ± 73.8 /10 min, 236.7 ± 60.8 /10 min and 194.8 ± 42.5 /10 min, respectively. For the same compound, the “Times of activities in 24 h” value was 314.9 ± 68.9 /10 min in the assay on Kunming mice [1] (25 mg/kg), 297.7 ± 87.6 /10 min in the assay with Kunming mice [1] (50 mg/kg) and 330.9 ± 73.6 /10 min in the assay with Kunming mice [1] (100 mg/kg). Besides, the duration of sleep in the assay on Kunming mice [2] (setting [4]) came to 39.56 ± 20.45 min; with Kunming mice [2] (setting [5]), 47.28 ± 16.84 min; in the assay with Kunming mice [2] (setting [6]), 52.86 ± 19.25 min. Further, the values for the time to sleep with Kunming mice [2] (setting [4]), in the assay on Kunming mice [2] (setting [5]) and in the assay on Kunming mice [2] (setting [6]) were 4.82 ± 1.61 min, 4.31 ± 1.84 min and 3.61 ± 1.48 min, respectively. Besides, the entries for the “Number of sleeping animals” value in the assay on Kunming mice [3] (setting [7]), in the assay on Kunming mice [3] (setting [8]) and in the assay with Kunming mice [3] (setting [9]) were 4, 6 and 7, respectively. In addition, the “rate of sleeping (%)” value is reported as 40* % in the assay on Kunming mice [3] (setting [7]), 60** % in the assay on Kunming mice [3] (setting [8]) and 70** % with Kunming mice [3] (setting [9]).

Take `CCc1cc(C2CC(=O)c3cc([N+](=O)[O-])c(SC#N)c(C4CCNC4)c3O2)ccc1C(=O)c1ccccc1` (stereo not drawn) [Example 54]: the “Times of activities in 1 h” value in the assay on Kunming mice [1] (25 mg/kg) is 307.3 ± 65.2 /10 min; with Kunming mice [1] (50 mg/kg), 252.8 ± 62.1 /10 min; in the assay on Kunming mice [1] (100 mg/kg) it was 205.3 ± 42.8 /10 min. Also, the “Times of activities in 2 h” value is recorded as 287.3 ± 72.9 /10 min in the assay with Kunming mice [1] (25 mg/kg), 240.2 ± 62.6 /10 min with Kunming mice [1] (50 mg/kg) and 198.3 ± 48.5 /10 min in the assay with Kunming mice [1] (100 mg/kg). Moreover, the “Times of activities in 24 h” value in the assay with Kunming mice [1] (25 mg/kg) is given as 331.2 ± 67.4 /10 min; with Kunming mice [1] (50 mg/kg), 320.7 ± 75.1 /10 min; with Kunming mice [1] (100 mg/kg), 315.3 ± 79.2 /10 min. Also, the duration of sleep amounted to 35.81 ± 17.2 min with Kunming mice [2] (setting [4]), 43.53 ± 14.97 min in the assay on Kunming mice [2] (setting [5]) and 47.53 ± 15.92 min with Kunming mice [2] (setting [6]). The time to sleep in the assay on Kunming mice [2] (setting [4]) is 4.84 ± 1.64 min; in the assay on Kunming mice [2] (setting [5]) it was 4.33 ± 1.87 min; in the assay on Kunming mice [2] (setting [6]), 3.63 ± 1.54 min. Also, the “Number of sleeping animals” value with Kunming mice [3] (setting [7]) turned out to be 3; in the assay on Kunming mice [3] (setting [8]), 5; in the assay with Kunming mice [3] (setting [9]), 7. For the same compound, the “rate of sleeping (%)” value with Kunming mice [3] (setting [7]) was 30%; in the assay on Kunming mice [3] (setting [8]), 50** %; in the assay with Kunming mice [3] (setting [9]), 70** %.

As for `COc1ccc(C2CC(=O)c3cc(CCS(=O)(=O)O)c(C4CCNC4)c(N)c3O2)cc1SC#N` (stereo not drawn) [Example 55], the “Times of activities in 1 h” value is 232.5 ± 66.1 /10 min with Kunming mice [1] (25 mg/kg), 138.3 ± 67.6 /10 min in the assay on Kunming mice [1] (50 mg/kg) and 110.8 ± 55.7 /10 min in the assay with Kunming mice [1] (100 mg/kg). Further, the “Times of activities in 2 h” value with Kunming mice [1] (25 mg/kg) is given as 229.8 ± 75.0 /10 min; in the assay with Kunming mice [1] (50 mg/kg), 135.6 ± 69.2 /10 min; in the assay with Kunming mice [1] (100 mg/kg), 103.8 ± 60.9 /10 min. Moreover, the “Times of activities in 24 h” value in the assay on Kunming mice [1] (25 mg/kg) is given as 295.2 ± 89.3 /10 min; in the assay with Kunming mice [1] (50 mg/kg), 297.5 ± 81.0 /10 min; in the assay with Kunming mice [1] (100 mg/kg), 289.8 ± 89.7 /10 min. For the same compound, the values for the duration of sleep in the assay with Kunming mice [2] (setting [4]), in the assay on Kunming mice [2] (setting [5]) and in the assay with Kunming mice [2] (setting [6]) were 37.98 ± 13.71 min, 58.53 ± 11.96 min and 65.94 ± 14.95 min, respectively. Moreover, the time to sleep in the assay with Kunming mice [2] (setting [4]) came to 4.03 ± 1.97 min; in the assay on Kunming mice [2] (setting [5]) it was 3.52 ± 2.22 min; in the assay on Kunming mice [2] (setting [6]), 3.21 ± 2.01 min. Further, the “Number of sleeping animals” value with Kunming mice [3] (setting [7]) is 5; in the assay with Kunming mice [3] (setting [8]) it was 6; in the assay with Kunming mice [3] (setting [9]), 9. Moreover, the “rate of sleeping (%)” value is on record as 50** % in the assay with Kunming mice [3] (setting [7]), 60** % in the assay with Kunming mice [3] (setting [8]) and 90*** % in the assay with Kunming mice [3] (setting [9]).
